Measured values from EP0083750A1, “Antimycotic azolyl butanols” (BAYER AG, priority 1981, dated 1983).
Converted amounts (≈) assume the structure as drawn.

What was measured:
[1] = test system: Trichophyton von mentagrophytes; assay: Antimycotic in-vivo activity (local) in experimental guinea pig trichophytosis; conditions: Meerschweinchen-Trichophytie, lokal
Text: Antimikrobielle in-vivo-Wirksamkeit (lokal) am Modell der experimentellen Meerschweinchen-Trichophytie
Weiße Mäuse der Rasse Pirbright-white wurden auf dem geschorenen, nicht skarifizierten Rücken mit einer Mikro-und Makrokonidien-Suspension von Trichophyton von mentagrophytes infiziert.
Die infizierten Tieren wurden, beginnend mit dem 3. Tag p.i., 1 x täglich mit einer 15%-igen Lösung der erfindungsgemäßen Präparate (in Dimethylsulfoxid : Glycerin = 1 : 4) lokal behandelt.
Bei unbehandelten Tieren entwickelte sich innerhalb 12 Tagen p.i. das typische Bild einer Dermatophytose mit Rötung, Schuppung und Haarausfall bis zum totalen Integument-Defekt an der Infektionsstelle.

[2] = test system: Candida-Zellen; assay: Antimycotic in-vivo activity (oral) in mouse candidosis; parameters: species or system Mäuse vom Typ SPF-CF1; conditions: for Wirkung (Überlebende am 6.Tag p.i.): Mäuse SPF-CF1, intravenös infiziert mit 1 - 2 x 10^6 Candida-Zellen, jeweils 50 - 100 mg/kg oral, 1 Stunde vor und 7 Stunden nach Infektion; for Wirkung im Vergleich zu den bekannten Verbindungen (A) und (B): Mäusecandidose, oral
Experimental: Antimykotische in-vivo-Wirksamkeit (oral) bei Mäusecandidose
Mäuse vom Typ SPF-CF1 wurden intravenös mit 1 - 2 x 10^6 logarithmisch wachsenden Candida-Zellen, die in physiologischer Kochsalzlösung suspendiert werden, infiziert. Eine Stunde vor und sieben Stunden nach der Infektion werden die Tiere mit jeweils 50 - 100 mg/kg Körpergewicht der Präparate oral behandelt.
Unbehandelte Tiere starben 3 bis 6 Tage post infektionem. Die Überlebensrate am 6. Tag post infektionem betrug bei unbehandelten Kontrolltieren etwa 5 %.

[3] = test system: Trichophyton mentagr.; assay: Antimycotic in-vitro activity, serial dilution test (MIC); assay type: cell-based; conditions: 96 h, Reihenverdünnungstest, 5 x 10^4 Keimen/ml Substrat, Sabourand's milieu d'epreuve, 20°C, 96 Stunden, read-out: MHK-Werte in γ/ml Nährmedium, Trichophyton mentagr.
Experimental: (§1) Versuchsbeschreibung: • Die in-vitro-Prüfungen wurden im Reihenverdünnungstest mit Keiminokula von durchschnittlich 5 x 10^4 Keimen/ml Substrat durchgeführt. Als Nährmedium dienten • a) für Dermatophyten und Schimmelpilze: Sabourand's milieu d'epreuve • b) für Hefen: • Fleischextrakt-Traubenzucker-Bouillon.
(§2) Die Bebrütungstemperatur betrug 20°C, die Bebrütungsdauer lag bei 24 bis 96 Stunden bei Hefen und 96 Stunden bei Dermatophyten und Schimmelpilzen.

[4] = test system: Candida albicans; assay: as above; assay type: cell-based; conditions: Reihenverdünnungstest, 5 x 10^4 Keimen/ml Substrat, Fleischextrakt-Traubenzucker-Bouillon, 20°C, 24 bis 96 Stunden, read-out: MHK-Werte in γ/ml Nährmedium, Candida albicans
Experimental: as §1, §2

[5] = test system: Torulopsis glabrata; assay: as above; assay type: cell-based; conditions: Nakaseomyces glabratus; Reihenverdünnungstest, 5 x 10^4 Keimen/ml Substrat, Fleischextrakt-Traubenzucker-Bouillon, 20°C, 24 bis 96 Stunden; read-out: MHK-Werte in γ/ml Nährmedium, Torulopsis glabrata
Experimental: as §1, §2

[6] = test system: Aspergillus fumig.; assay: as above; assay type: cell-based; conditions: 96 h, Reihenverdünnungstest, 5 x 10^4 Keimen/ml Substrat, Sabourand's milieu d'epreuve, 20°C, 96 Stunden, read-out: MHK-Werte in γ/ml Nährmedium, Aspergillus fumig.
Experimental: as §1, §2

[7] = test system: Microsporum canis; assay: as above; assay type: cell-based; conditions: 96 h, Reihenverdünnungstest, 5 x 10^4 Keimen/ml Substrat, Sabourand's milieu d'epreuve, 20°C, 96 Stunden, read-out: MHK-Werte in γ/ml Nährmedium, Microsporum canis
Experimental: as §1, §2

[8] = test system: Dermatophyten, Schimmelpilze, Hefen; assay: Antimycotic in-vitro activity, serial dilution test, overall comparison with prior art; assay type: cell-based; conditions: in-vitro Reihenverdünnungstest
Experimental: as §1, §2

SMILES	Wirkung [1]	Wirkung (Überlebende am 6.Tag p.i.) [2]	Wirkung im Vergleich zu den bekannten Verbindungen (A) und (B) [2]	MIC [3] [µg/mL]	MIC [4] [µg/mL]	MIC [5] [µg/mL]	MIC [6] [µg/mL]	MIC [7] [µg/mL]	antimykotische Wirkung im Vergleich zu den bekannten Verbindungen (A) und (B) [8]
CC(C)(COc1ccc(Cl)cc1)C(O)C(Cc1ccc(Cl)cc1Cl)n1cncn1 (stereo not drawn) [Beispiel 11]	gute bis sehr gute Wirkung	++ (= schwache Wirkung = 40 % Überlebende am 6.Tag p.i.)	bessere Wirkung	< 1	< 1	< 1	64 (≈ 141 µM)	< 1	bessere antimykotische Wirkung
CC(C)(COc1ccc(Cl)cc1)C(O)C(CC1CCCCC1)n1ccnc1 (stereo not drawn) [Beispiel 20]	gute bis sehr gute Wirkung	++++ (= gute Wirkung = 80 % Überlebende am 6.Tag p.i.)	bessere Wirkung	< 1	< 1	8 (≈ 20.5 µM)	4 (≈ 10.2 µM)	4 (≈ 10.2 µM)	bessere antimykotische Wirkung
CCCCC(C(O)C(C)(C)COc1ccc(Br)cc1)n1cncn1 (stereo not drawn) [Beispiel 46]	gute bis sehr gute Wirkung	++++ (= gute Wirkung = 80 % Überlebende am 6.Tag p.i.)	bessere Wirkung	< 1	< 1	< 1	4 (≈ 10.1 µM)	< 1	bessere antimykotische Wirkung
